Laboratory results from US20230374462A1, “METHOD FOR PRODUCING MYOCARDIAL STEM/PROGENITOR CELL AND METHOD FOR SUPPRESSING MYOCARDIAL FIBROSIS” (priority 2020, published 2023).

How the values were obtained:
[1] = system: primary human cardiomyocytes (HCM); experiment: Long-term culture with low-speed imaging of cardiomyocytes in presence of low molecular weight compound; type: cell-based; conditions: for long-term culture (proliferation): HCM, FIG. 1B; for cell morphology of cardiomyocytes: long-term culture, FIG. 1A
Method: (§1) The subcultured human cardiomyocytes were seeded at 0.5×10^2 cells/cm^2 on a 35 mm plate (IWAKI) containing: 3 mL of a Vascular Smooth Muscle Cell growth medium containing 3-(6-methyl-2-pyridinyl)-n-phenyl-4-(4-quinolinyl)-1H-pyrazole-1-carbothioamide (A-83-01: A) (final concentration: 1 AM) as a low molecular weight compound TGFβ receptor inhibitor or (1R,4r)-4-((R)-1-aminoethyl)-N-(pyridin-4-yl)cyclohexanecarboxamide (Y-27632: Y) (final concentration: 10 AM) as a ROCK inhibitor, both of the compounds A-83-01 and Y-27632, or free of them: or a Myocyte basal medium. On Day 3, the Vascular Smooth Muscle Cell growth medium containing each low molecular weight compound or the Myocyte basal medium was replaced. Thereafter, the medium was replaced in the same manner every three days.
After the medium replacement, low-speed imaging was performed using a BZ9000 all-in-one fluorescence microscope (KEYENCE). In addition, the individual cells were tracked throughout the imaging period (110 days), and the final number of cells derived from each cell was measured.

[2] = system: primary human coronary artery smooth muscle cells (PC-100-021); experiment: Long-term culture with low-speed imaging in presence of low molecular weight compound; type: cell-based; conditions: FIG. 1C
HCM cells [3] = experiment: Quantitative RT-PCR of progenitor, maturation and senescence markers; type: cell-based, human; conditions: for number of cell death due to the treatment: concluded from senescence markers
Method: as §1
(§2) Total RNA was isolated from each cardiomyocyte 1 month and 2 months after culture in the presence of the test low molecular weight compound using miRNeasy Mini Kit (QIAGEN). Reverse transcription reactions were performed using High-Capacity cDNA Reverse Transcription Kit Lifetechnologies according to manufacturer's guidelines. PCR was performed using the obtained cDNA as a template and a Taqman Probe (ThermoFisher). An expression level of a target gene was standardized with β-actin as an endogenous control.

PC-100-021 cells [4] = experiment: as above; type: cell-based, human; conditions: for number of cell death due to the treatment: concluded from senescence markers
Method: as §1, §2

HCM cells [5] = experiment: Western blot of endothelial cell marker (CD31) and muscle cell marker (Troponin T); type: cell-based, human; conditions: FIG. 3B
Source text: (§3) FIG. 3 A: Graphs showing mRNA expression of the myocardial progenitor cell markers (GATA4 and VCAM-1), the maturation marker (MYL2), and senescence markers (CDKN1A and CDKN2A) for cardiomyocytes, in the cardiomyocytes treated with the TGFβ receptor inhibitor (A) or the ROCK inhibitor (Y). In each graph, the vertical axis represents the expression amount (Relative mRNA expression) of each mRNA when the expression amount of the cells before culture is 1, and the numerical values on the horizontal axis represent culture periods (day). B: Photographs showing the results of confirming, by Western blot, loss of the expression of an endothelial cell marker (CD31), and expression of a muscle cell marker (Troponin T) and Actin, in primary human cardiomyocytes (HCM) or primary human coronary artery smooth muscle cells (PC-100-021) treated with the TGFβ receptor inhibitor (A) or the ROCK inhibitor (Y). NT indicates an agent-untreated control, and HUVEC indicates a result of using human umbilical vein endothelial cells (CD31-positive as the endothelial cell marker).

PC-100-021 cells [6] = experiment: as above; type: cell-based, human; conditions: FIG. 3B
Source text: as §3

[7] = 1 and 2 months culture, vs agent untreated group, FIG. 2
[8] = culture periods in days, FIG. 3A

Structure (SMILES)	long-term culture (proliferation) [1]	cell morphology of cardiomyocytes [1]	long-term culture (proliferation) [2]	decrease in progenitor cell markers (GATA4 and VCAM-1) mRNA during culture (HCM cells [3]; [7])	increase in maturation marker (MYL2) mRNA during culture (HCM cells [3]; [7])	expression of senescence markers (CDKN1A and CDKN2A) mRNA (HCM cells [3]; FIG. 3A)	number of cell death due to the treatment (HCM cells [3])	increase in maturation marker (MYL2) mRNA during culture (HCM cells [3]; [8])	decrease in progenitor cell markers (GATA4 and VCAM-1) mRNA during culture (PC-100-021 cells [4]; [7])	increase in maturation marker (MYL2) mRNA during culture (PC-100-021 cells [4]; [7])	expression of senescence markers (CDKN1A and CDKN2A) mRNA (PC-100-021 cells [4]; FIG. 3A)	number of cell death due to the treatment (PC-100-021 cells [4])	increase in maturation marker (MYL2) mRNA during culture (PC-100-021 cells [4]; [8])	expression of endothelial cell marker (CD31) (HCM cells [5])	expression of muscle cell marker (HCM cells [5])	expression of endothelial cell marker (CD31) (PC-100-021 cells [6])	expression of muscle cell marker (PC-100-021 cells [6])	decrease in progenitor cell markers (GATA4 and VCAM-1) mRNA during culture (HCM cells [3]; [8])	decrease in progenitor cell markers (GATA4 and VCAM-1) mRNA during culture (PC-100-021 cells [4]; [8])
Cc1cccc(-c2nn(C(=S)Nc3ccccc3)cc2-c2ccnc3ccccc23)n1 [A-83-01, 3-(6-methyl-2-pyridinyl)-n-phenyl-4-(4-quinolinyl)-1H-pyrazole-1-carbothioamide]	long-term culture was induced	maintained the original cell morphology	long-term culture was induced	promoted	promoted	hardly expressed	small	promote	promoted	promoted	hardly expressed	small	promote	not expressed	expressed	not expressed	expressed		
C[C@@H](N)[C@H]1CC[C@H](C(=O)Nc2ccncc2)CC1 [Y-27632, (1R,4r)-4-((R)-1-aminoethyl)-N-(pyridin-4-yl)cyclohexanecarboxamide]	long-term culture was induced	maintained the original cell morphology		suppressed	suppressed	hardly expressed	small	suppressed	suppressed	suppressed	hardly expressed	small	suppressed	not expressed	expressed	not expressed	expressed	suppressed	suppressed
